Assay results published in the OPERA property sets (Mansouri et al. 2018).

Settings: not given

Point of comparison: `O=C(CCl)C(Cl)(Cl)Cl`, melting point 65 °C. Against it:
- C[C@]12CC[C@H]3[C@@H](CCC4=CC(=O)CC[C@@]43C)[C@@H]1CC[C@@H]2O — higher, 155 °C
- O=C(O)c1cc(O)nc(O)n1 — higher, 346 °C
- CCCCCCCCCc1cccc2ccccc12 — lower, 8 °C
- CC(C)(C)N(NC(=O)c1ccccc1)C(=O)c1ccccc1I — higher, 188 °C
- CCCCCCCCCCCCC1=C(OC(C)=O)C(=O)c2ccccc2C1=O — lower, 59.6 °C
- CS/C(C)=N/OC(=O)N(C)SN(C)C(=O)O/N=C(\C)SC — higher, 173 °C
- COc1ccc(CCN2CCC(Nc3nc4ccccc4n3Cc3ccc(F)cc3)CC2)cc1 — higher, 149 °C
- O=C(O)CCOc1cccc2ccccc12 — higher, 146 °C
- O=C(O)COc1c(Cl)ccc(Cl)c1Cl — higher, 148 °C
- CCOC(C)(C)C — lower, -94 °C
- CCCCCCCCCCCCCCCCCCCC1CCCCC1 — lower, 45 °C
- O=C(O)c1ccc(C(=O)O)c(C(=O)O)c1 — higher, 219 °C
- c1cc2ccc3ccc4ccc5cccc6c(c1)c2c3c4c56 — higher, 278 °C
- CC[C@H](CC[C@@H](C)[C@H]1CC[C@H]2[C@@H]3CC=C4C[C@@H](O)CC[C@]4(C)[C@H]3CC[C@]12C)C(C)C — higher, 144 °C
- NC12CC3CC(CC(C3)C1)C2 — higher, 180 °C
- CCN1C(=O)OC(C)(C)C1=O — higher, 76.5 °C
- CCOc1ccc(N)cc1 — lower, 2.4 °C
- CC[C@H]1CC[C@H](C)C1 — lower, -108 °C
- CC(O)CNCCN (configuration not stated) — lower, -50 °C
- COP(=S)(OC)SCN1C(=O)c2ccccc2C1=O — higher, 72 °C
- NC(=O)N(CCO)/N=C/c1ccc([N+](=O)[O-])o1 — higher, 214 °C
- O=C(O)C(I)I — higher, 110 °C
- CCCCCCCCCCCCO — lower, 24 °C
- CC1CCCCC1NC(=O)Nc1ccccc1 (configuration not stated) — higher, 136 °C
- O=[N+]([O-])c1cc(Cl)c(O)c(Cl)c1 — higher, 127 °C
- CCCCCCCCCCCCCCCCCC(=O)OCCCCCCCCCCCCCCCC — lower, 57 °C
- CC1=C(C(=O)O)CCC1(C)C — higher, 135 °C
- CC(C=NO)=NO — higher, 157 °C
- O=C(O)CCCc1ccc(N(CCCl)CCCl)cc1 — the same, 65 °C
- CC1(C)S[C@@H]2[C@H](N3C(=O)C(c4ccccc4)NC3(C)C)C(=O)N2[C@H]1C(=O)O (some centres not stated) — higher, 190 °C
- CC[N+]1(CC)CCC(OC(=O)C(O)(c2ccccc2)c2ccccc2)C1.[Br-] (configuration not stated) — higher, 204 °C
- C=Cc1ccc(C)cc1 — lower, -34.1 °C
- CCNc1nc(Cl)nc(NCC)n1 — higher, 226 °C
- CN(C)C(=O)COC(=O)c1ccccc1 — higher, 81.5 °C
- NC1CCC(CC2CCC(N)CC2)CC1 (configuration not stated) — lower, 15 °C
- CCCCCCCC/C=C\CCCCCCCC#N — lower, -1 °C
- O=C=Nc1ccc(N=C=O)cc1 — higher, 97.5 °C
- C1COCOC1 — lower, -45 °C
- CC/C(=C\c1ccccc1)[N+](=O)[O-] — higher, 90.5 °C
- CC(=O)Nc1cccc(O)c1 — higher, 147 °C
- N=C(N)NS(=O)(=O)c1ccc(N)cc1 — higher, 192 °C
- CCCCCC#CCC(=O)O — lower, 17 °C
- CCOP(=S)(OCC)SC1OCCOC1SP(=S)(OCC)OCC (configuration not stated) — lower, -20 °C
- Nc1nc(N)nc(-c2ccccc2)n1 — higher, 226 °C

Point of comparison: `CCCCCCCCCc1cccc2ccccc12`, boiling point 366 °C. Against it:
- CCc1cccs1 — lower, 134 °C
- CCC(CC)C(C)C(C)C (configuration not stated) — lower, 162 °C
- C[Si](C)(Cl)Cl — lower, 70.3 °C
- CC(=O)c1ccc(N)cc1 — lower, 294 °C
- O=C(CCl)C(Cl)(Cl)Cl — lower, 183 °C
- CCOC(C)(C)C — lower, 73.1 °C
- CCCCCCCCCCCCCCCCCCCC1CCCCC1 — higher, 420 °C
- O=[N+]([O-])CBr — lower, 149 °C
- Cc1cccnc1C — lower, 161 °C
- CCOc1ccc(N)cc1 — lower, 254 °C
- CC[C@H]1CC[C@H](C)C1 — lower, 121 °C
- Cc1ccc(CCl)c(C)c1 — lower, 216 °C
- C(CCOCC1CO1)COCC1CO1 (configuration not stated) — lower, 266 °C
- FC(F)(F)C(F)(F)C(F)(F)C(F)(F)C(F)(F)C(F)(F)C(F)(F)C(F)(F)C(F)(F)I — lower, 181 °C
- CCCCCCCCCCCCO — lower, 259 °C
- CC1=C(C(=O)O)CCC1(C)C — lower, 256 °C
- C=Cc1ccc(C)cc1 — lower, 173 °C
- NC1CCC(CC2CCC(N)CC2)CC1 (configuration not stated) — lower, 320 °C
- O=C=Nc1ccc(N=C=O)cc1 — lower, 260 °C
- C1COCOC1 — lower, 106 °C
- CC/C(=C\c1ccccc1)[N+](=O)[O-] — lower, 308 °C

Point of comparison: `COP(=S)(OC)SCN1C(=O)c2ccccc2C1=O`, log10 Koc (L/kg) 2.91. Against it:
- CS/C(C)=N/OC(=O)N(C)SN(C)C(=O)O/N=C(\C)SC — lower, 2.54
- CCOP(=S)(OCC)Oc1ccc(S(C)=O)cc1 (configuration not stated) — lower, 2.52
- c1cc2ccc3ccc4ccc5cccc6c(c1)c2c3c4c56 — higher, 4.61
- CCCCCCCCCCCCO — higher, 3.52
- CC1CCCCC1NC(=O)Nc1ccccc1 (configuration not stated) — lower, 2.31
- CCNc1nc(Cl)nc(NCC)n1 — lower, 2.1

Point of comparison: `Cc1cccnc1C`, log10 vapour pressure (mmHg) 0.43. Against it:
- CS/C(C)=N/OC(=O)N(C)SN(C)C(=O)O/N=C(\C)SC — lower, -4.15
- CCc1cccs1 — higher, 1.05
- C[Si](C)(Cl)Cl — higher, 2.16
- CCOC(C)(C)C — higher, 2.09
- O=[N+]([O-])CBr — within 0.2 log units, 0.491
- CCOP(=S)(OCC)Oc1ccc(S(C)=O)cc1 (configuration not stated) — lower, -4.3
- c1cc2ccc3ccc4ccc5cccc6c(c1)c2c3c4c56 — lower, -10
- CCOc1ccc(N)cc1 — lower, -1.98
- COP(=S)(OC)SCN1C(=O)c2ccccc2C1=O — lower, -6.31
- CCCCCCCCCCCCO — lower, -3.07
- CC1CCCCC1NC(=O)Nc1ccccc1 (configuration not stated) — lower, -8.4
- C=Cc1ccc(C)cc1 — within 0.2 log units, 0.258
- CCNc1nc(Cl)nc(NCC)n1 — lower, -7.66

In the case of `CC(=O)c1ccc(N)cc1`, the ready biodegradability is reported as “not readily biodegradable”.
With `CCOc1ccc(N)cc1` the ready biodegradability was “not readily biodegradable”.
With `COC(C)CCOC(C)=O` (configuration not stated) the ready biodegradability was “readily biodegradable”.
With `C(CCOCC1CO1)COCC1CO1` (configuration not stated) the ready biodegradability was “not readily biodegradable”.
With `CCCCCCCCCCCCO` the ready biodegradability was “readily biodegradable”.
With `CCNc1nc(Cl)nc(NCC)n1` the ready biodegradability was “not readily biodegradable”.
In the case of `Nc1nc(N)nc(-c2ccccc2)n1`, the ready biodegradability is reported as “not readily biodegradable”.

Point of comparison: `Cc1cccnc1C`, log10 Henry constant (atm·m³/mol) -5.14. Against it:
- CCOC(C)(C)C — higher, -2.79
- c1cc2ccc3ccc4ccc5cccc6c(c1)c2c3c4c56 — lower, -6.48
- CCCCCCCCCCCCO — higher, -4.65

With `c1cc2ccc3ccc4ccc5cccc6c(c1)c2c3c4c56` the log10 biodegradation half-life (days) was 2.75.

`Clc1ccc(Cl)c2c(Cl)ccc(Cl)c12` gave a log10 Koa of 8.45.

Same assay, conditions: fish

Point of comparison: `COP(=S)(OC)SCN1C(=O)c2ccccc2C1=O`, log10 BCF 0.26. Against it:
- ClC(Cl)(Cl)C(Cl)(Cl)Cl — higher, 2.71
- Nc1cccc2ccccc12 — higher, 1.4
- ClC(Cl)(Cl)Cl — higher, 0.87
- Brc1ccc(Oc2c(Br)cccc2Br)c(Br)c1 — higher, 5.88
- CCOc1ccc(N)cc1 — higher, 1
- O=S(=O)(O)c1ccc(O)c2ccccc12 — higher, 1.11
- C=Cc1ccc(C)cc1 — higher, 1.5
- CCNc1nc(Cl)nc(NCC)n1 — higher, 0.56

Point of comparison: `Clc1cc(Cl)c(Cl)c(-c2c(Cl)ccc(Cl)c2Cl)c1`, log10 biotransformation half-life (days) 2.32. Against it:
- ClC(Cl)(Cl)C(Cl)(Cl)Cl — lower, 0.76
- Nc1cccc2ccccc12 — lower, -0.24
- ClC(Cl)(Cl)Cl — lower, -1.19
- Cc1c2ccccc2cc2ccccc12 — lower, 0.23
- CCOc1ccc(N)cc1 — lower, -1.24
- CCNc1nc(Cl)nc(NCC)n1 — lower, -0.94
